Assay results as given in patent US20240124460A1, “METHODS AND COMPOSITIONS FOR TARGETED PROTEIN DEGRADATION” (Ranok Therapeutics (Hangzhou) Co. Ltd., priority 2020, published 2024).
Like-named read-outs stand apart in the source and are kept apart here.

Key:
HSP90α protein [1] = molecular target: T1, HSP90α protein (Homo sapiens, UniProt P07900); assay: HSP90α-binding FP (BODIPY) assay; conditions: FP competition with BODIPY-labeled RNK04010
T1 construct: purchased BPS Bioscience #50298
In short: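 Fluorescence polarization measured competition with N-terminal human HSP90α, using either FITC-geldanamycin or BODIPY-labelled triazolone RNK04010 as tracer (5 nM final each). Compounds were tested in 2.5-fold dilutions from 20 μM to 5.2 nM, with incubation at 25 °C for 120 min (FITC) or 300 min (BODIPY).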

ERBB2 = ERBB2 (HER2) flow cytometry protein degradation assay in BT-474 cells; assay type: cell-based, human; conditions: DC50, BT-474 cells, 24 hr
In short: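 BT-474 cells trypsinised after compound treatment and stained with PE-conjugated anti-ERBB2 antibody, 30 min at 25° C in the dark, then fixed in 1% paraformaldehyde for flow cytometry. % inhibition = 100−(D−B)/(S−B)*100, using treated, untreated-stained and unstained cell fluorescence.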

[2] = tested on: MV-4-11 human acute myeloid leukemia; assay: MV-4-11 CCK-8 proliferation assay; assay type: cell-based; conditions: MV-4-11 cells, 72 hr
In short: (§1)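 Cells grown per ATCC recommendations were treated with 3-fold serial compound dilutions from 20 μM to 1.02 nM. CCK-8 absorbance was converted to % inhibition against DMSO-treated cells, with cell-free medium containing DMSO as the blank.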

[3] = tested on: U-87 MG human glioblastoma; assay: U87 MG CCK-8 proliferation assay; assay type: cell-based; conditions: U-87 MG cells, read-out: U87MG CCK-8
In short: as §1

MAPK7 [4] = molecular target: T2, MAPK7 (Homo sapiens, UniProt Q13164); assay: MAPK7 kinase assay (ADP-Glo); assay type: biochemical; design: purchased Carna Biosciences #04-146; conditions: ATP 340 μM
T2 sequence (Q13164 whole entry): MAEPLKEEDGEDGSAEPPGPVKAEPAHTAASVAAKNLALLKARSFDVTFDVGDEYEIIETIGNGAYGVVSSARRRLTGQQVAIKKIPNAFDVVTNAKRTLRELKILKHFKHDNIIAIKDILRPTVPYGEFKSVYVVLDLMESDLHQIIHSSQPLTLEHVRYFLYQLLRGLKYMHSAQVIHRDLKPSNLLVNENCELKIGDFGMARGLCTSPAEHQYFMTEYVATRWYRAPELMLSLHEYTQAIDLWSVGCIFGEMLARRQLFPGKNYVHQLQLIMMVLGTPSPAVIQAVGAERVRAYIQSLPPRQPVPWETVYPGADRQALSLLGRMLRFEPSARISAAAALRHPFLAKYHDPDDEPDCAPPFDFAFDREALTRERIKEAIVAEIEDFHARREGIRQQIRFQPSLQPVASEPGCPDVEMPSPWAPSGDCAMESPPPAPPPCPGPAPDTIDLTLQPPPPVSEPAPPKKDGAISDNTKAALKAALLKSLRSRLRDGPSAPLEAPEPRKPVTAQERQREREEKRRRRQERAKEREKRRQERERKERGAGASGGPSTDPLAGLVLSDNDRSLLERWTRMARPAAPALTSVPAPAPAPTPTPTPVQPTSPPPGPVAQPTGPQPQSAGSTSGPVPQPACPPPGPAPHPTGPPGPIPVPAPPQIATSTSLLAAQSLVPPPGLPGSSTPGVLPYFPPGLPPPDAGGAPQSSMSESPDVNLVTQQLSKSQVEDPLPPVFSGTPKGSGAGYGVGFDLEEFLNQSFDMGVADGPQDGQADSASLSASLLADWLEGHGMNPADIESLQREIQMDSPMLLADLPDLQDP
Protocol: The inhibition of MAPK7 kinase activity by test compounds was measured by the ADP-Glo Kinase Assay (Promega, #V6930), following the manufacturer's instructions, except as noted. 3-fold serial dilutions of each test compound were prepared ranging from 50 μM to 2.54 nM. Also, as a positive control, a 4-fold serial dilution of the MAPK7 inhibitor, XMD17-109 (MedChemExpress, #HY-15665) was prepared ranging from 10 μM to 0.04 nM. In brief, in 384-well plates, test compounds were added to the kinase reaction mix containing recombinant MAPK7 protein (Carna Biosciences, #04-146; 20 nM final concentration), myelin basic protein (SignalChem Biotech, #M42-54G; 0.1 mg/ml final concentration) and ATP (340 μM final concentration), then mixed by shaking and incubated with ADP-Glo Reagent and Kinase Detection Reagent. Luminescence was measured on a BioTek plate reader.
Lumpositive: The average ratio for 10 wells of positive controls (10 μM XMD17-109) across the plate.
Lumvehicle: The average ratio for 10 wells of negative controls (0.5% DMSO) across the plate.

MAPK7 [5] = molecular target: T2, MAPK7; assay: MAPK7 Western blot protein degradation assay in U-87 MG cells; assay type: cell-based; design: U-87 MG human glioblastoma cells, which express MAPK7; endogenous in cells; host or cells: U-87 MG; conditions: 48 hr
In short: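 U-87 MG glioblastoma cells treated with compounds at various concentrations for 48 h at 37 °C. MAPK7 (ERK5) levels in protein-normalized lysates measured by Western blot with β-actin as loading reference, quantified by fluorescence imaging.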

[6] = tested on: MDA-MB-231 human breast adenocarcinoma; assay: MDA-MB-231 CCK-8 proliferation assay; assay type: cell-based; conditions: MDA-MB-231 cells, 72 hr
Protocol: (§2) The following cancer cell lines were employed: A549 human lung carcinoma (ATCC, #CCL-185); BT-474 human breast carcinoma (ATCC, #HTB-20); MDA-MB-231 human breast adenocarcinoma (ATCC, #CRM−HTB-26); MDA-MB-468 human breast adenocarcinoma (ATCC, #HTB-132); MV-4-11 human acute myeloid leukemia (ATCC, #CRL-9591); and U-87 MG human glioblastoma (ATCC, #HTB-14). Cell lines were cultured essentially according to ATCC recommendations.
(§3) 3-fold serial dilutions of each test compound were prepared ranging from 20 μM to 1.02 nM.
(§4) % Inhibition=100−(D−B)/(S−B)*100%. • S: Absorbance of cells treated with DMSO • D: Absorbance of compound-treated cells • B: Absorbance of medium with DMSO without cells

[7] = tested on: MDA-MB-468 human breast adenocarcinoma; assay: MDA-MB-468 CCK-8 proliferation assay; assay type: cell-based; conditions: MDA-MB-468 cells, 72 hr
Protocol: as §2, §3, §4

HSP90α protein [8] = molecular target: T1, HSP90α protein; assay: HSP90α-binding FP (FITC) assay; conditions: FP competition with FITC-geldanamycin
Protocol: Binding of test compounds to HSP90α protein was measured by fluorescent polarization (FP) using the HSP90α (N-terminal) Assay Kit (BPS Bioscience, #50298), following the manufacturer's instructions, except as noted. Fluorescently labeled HSP90-binding compounds, either the provided FITC-geldanamycin (5 nM final concentration) or RNK04010, a triazolone-based HSP90 binding small molecule labeled with BODIPY through a piperazine-phenyl linker (5 nM final concentration) were employed. A 2.5-fold serial dilution of each test compound ranging from 20 μM to 5.2 nM was assayed for binding to HSP90α. After the final step of adding HSP90α protein to each assay well, plates were mixed by brief shaking, incubated at 25° C. for 120 min for FITC-geldanamycin or 300 min for RNK04010, and fluorescence was measured using a PerkinElmer EnVision Plate Reader.

| SMILES | IC50 (HSP90α protein [1]) [nM] | EC50 ([2]; Homo sapiens, MV4-11) [nM] | EC50 ([3]; Homo sapiens, U-87 MG, 72 h) [nM] | IC50 (MAPK7 [4]) [nM] | MAPK7 degradation (30 nM) (MAPK7 [5]) | MAPK7 degradation (100 nM) (MAPK7 [5]) | MAPK7 degradation (1000 nM) (MAPK7 [5]) | EC50 [6] [nM] | EC50 [7] [nM] | EC50 [2] [nM] | EC50 ([3]; 72 hr) [nM] | IC50 (HSP90α protein [8]) [nM] | MAPK7 degradation (300 nM) (MAPK7 [5]; 300 nM) | ERBB2 degradation (ERBB2) |
| --- | --- | --- | --- | --- | --- | --- | --- | --- | --- | --- | --- | --- | --- | --- |
| CCOc1cc(N2CCC(C(=O)N3CCN(Cc4ccc(-n5c(O)nnc5-c5cc(C(C)C)c(O)cc5O)cc4)CC3)CC2)ccc1Nc1ncc2c(n1)N(C)c1ccccc1C(=O)N2C [Compound 024, 2-((4-(4-(4-(4-(3-(2,4-dihydroxy-5-isopropylphenyl)-5-hydroxy-4H-1,2,4-triazol-4-yl)benzyl)piperazine-1-carbonyl)piperidin-1-yl)-2-ethoxyphenyl)amino)-5,11-dimethyl-5,11-dihydro-6H-benzo[e]pyrimido[5,4-b][1,4]diazepin-6-one] | 100 to 1000 | < 100 | < 100 | > 1000 | C (< 33% degradation) | B (33-66% degradation) | A (>66% degradation) |  |  |  |  |  |  | B (DC50 = 100-1000 nM) |
| CCOc1cc(N2CCC(C(=O)N3CCC(CN4CCN(Cc5ccc(-n6c(O)nnc6-c6cc(CC)c(O)cc6O)cc5)CC4)CC3)CC2)ccc1Nc1ncc2c(n1)N(C)c1ccccc1C(=O)N2C [Compound 013, 2-((2-ethoxy-4-(4-(4-((4-(4-(3-(5-ethyl-2,4-dihydroxyphenyl)-5-hydroxy-4H-1,2,4-triazol-4-yl)benzyl)piperazin-1-yl)methyl)piperidine-1-carbonyl)piperidin-1-yl)phenyl)amino)-5,11-dimethyl-5H-benzo[e]pyrimido[5,4-b][1,4]diazepin-6(11H)-one] |  | < 100 | 100 to 1000 |  | C (< 33% degradation) | C (< 33% degradation) | A (>66% degradation) | 100 to 1000 | 100 to 1000 |  |  | 100 to 1000 |  | B (DC50 = 100-1000 nM) |
| CCOc1cc(N2CCC(C(=O)N3CCC(CN4CCN(Cc5ccc(-n6c(O)nnc6-c6cc(C(C)C)c(O)cc6O)cc5)CC4)CC3)CC2)ccc1Nc1ncc2c(n1)N(C)c1ccccc1C(=O)N2C.Cl [Compound 032, 2-((4-(4-(4-((4-(4-(3-(2,4-dihydroxy-5-isopropylphenyl)-5-hydroxy-4H-1,2,4-triazol-4-yl)benzyl)piperazin-1-yl)methyl)piperidine-1-carbonyl)piperidin-1-yl)-2-ethoxyphenyl)amino)-5,11-dimethyl-5,11-dihydro-6H-benzo[e]pyrimido[5,4-b][1,4]diazepin-6-one] | < 100 | < 100 | 100 to 1000 | > 1000 | C (< 33% degradation) | B (33-66% degradation) | A (>66% degradation) |  |  |  |  |  | A (>66% degradation) | B (DC50 = 100-1000 nM) |
| CCOc1cc(N2CCC(C(=O)NCC3CCN(C(=O)C4CCN(Cc5ccc(-n6c(O)nnc6-c6cc(C(C)C)c(O)cc6O)cc5)CC4)C3)CC2)ccc1Nc1ncc2c(n1)N(C)c1ccccc1C(=O)N2C (stereo not drawn) [Compound 010, N-((1-(1-(4-(3-(2,4-dihydroxy-5-isopropylphenyl)-5-hydroxy-4H-1,2,4-triazol-4-yl)benzyl)piperidine-4-carbonyl)pyrrolidin-3-yl)methyl)-1-(4-((5,11-dimethyl-6-oxo-6,11-dihydro-5H-benzo[e]pyrimido[5,4-b][1,4]diazepin-2-yl)amino)-3-ethoxyphenyl)piperidine-4-carboxamide] |  | < 100 | 100 to 1000 |  |  |  |  | > 1000 | > 1000 |  |  | 100 to 1000 |  | C (DC50 > 1000 nM) |

Second part, led by results:

| IC50 (HSP90α protein [1]) [nM] | EC50 ([2]; Homo sapiens, MV4-11) [nM] | EC50 ([3]; Homo sapiens, U-87 MG, 72 h) [nM] | IC50 (MAPK7 [4]) [nM] | MAPK7 degradation (30 nM) (MAPK7 [5]) | MAPK7 degradation (100 nM) (MAPK7 [5]) | MAPK7 degradation (1000 nM) (MAPK7 [5]) | EC50 [6] [nM] | EC50 [7] [nM] | EC50 [2] [nM] | EC50 ([3]; 72 hr) [nM] | IC50 (HSP90α protein [8]) [nM] | MAPK7 degradation (300 nM) (MAPK7 [5]; 300 nM) | SMILES | ERBB2 degradation (ERBB2) |
| --- | --- | --- | --- | --- | --- | --- | --- | --- | --- | --- | --- | --- | --- | --- |
| 100 to 1000 |  |  |  |  |  |  | 100 to 1000 | < 100 | < 100 | 100 to 1000 |  |  | CCOc1cc(N2CCC(C(=O)NCCOCc3ccc(-n4c(O)nnc4-c4cc(C(C)C)c(O)cc4O)cc3)CC2)ccc1Nc1ncc2c(n1)N(C)c1ccccc1C(=O)N2C [Compound 053, N-(2-((4-(3-(2,4-dihydroxy-5-isopropylphenyl)-5-hydroxy-4H-1,2,4-triazol-4-yl)benzyl)oxy)ethyl)-1-(4-((5,11-dimethyl-6-oxo-6,11-dihydro-5H-benzo[e]pyrimido[5,4-b][1,4]diazepin-2-yl)amino)-3-ethoxyphenyl)piperidine-4-carboxamide] |  |
|  | > 1000 | > 1000 | < 100 |  |  |  |  |  |  |  | > 1000 |  | CCOc1cc(N2CCC(C(=O)N3CCC(CN4CCN(Cc5ccc(-n6c(O)nnc6-c6cc(C(C)C)c(O)cc6OC)cc5)CC4)CC3)CC2)ccc1Nc1ncc2c(n1)N(S(C)(=O)=O)c1ccccc1C(=O)N2C [Compound 128, 2-((2-ethoxy-4-(4-(4-((4-(4-(3-hydroxy-5-(4-hydroxy-5-isopropyl-2-methoxyphenyl)-4H-1,2,4-triazol-4-yl)benzyl)piperazin-1-yl)methyl)piperidine-1-carbonyl)piperidin-1-yl)phenyl)amino)-5-methyl-11-(methylsulfonyl)-5,11-dihydro-6H-benzo[e]pyrimido[5,4-b][1,4]diazepin-6-one] |  |
| 100 to 1000 | < 100 | 100 to 1000 |  |  |  |  | < 100 | < 100 |  |  |  |  | CCOc1cc(N2CCC(C(=O)N3CCN(Cc4ccc(-n5c(O)nnc5-c5cc(CC)c(O)cc5O)cc4)CC3)CC2)ccc1Nc1ncc2c(n1)N(C)c1ccccc1C(=O)N2C [Compound 049, 2-((2-ethoxy-4-(4-(4-(4-(3-(5-ethyl-2,4-dihydroxyphenyl)-5-hydroxy-4H-1,2,4-triazol-4-yl)benzyl)piperazine-1-carbonyl)piperidin-1-yl)phenyl)amino)-5,11-dimethyl-5,11-dihydro-6H-benzo[e]pyrimido[5,4-b][1,4]diazepin-6-one] |  |
| 100 to 1000 | < 100 | 100 to 1000 | > 1000 |  |  |  |  |  |  |  |  |  | CCOc1cc(N2CCC(C(=O)N3CCN(Cc4ccc(-n5c(O)nnc5-c5cc(C(C)C)c(O)cc5O)cc4)CC3)CC2)ccc1N(C)c1ncc2c(n1)N(C)c1ccccc1C(=O)N2C [Compound 047, 2-((4-(4-(4-(4-(3-(2,4-dihydroxy-5-isopropylphenyl)-5-hydroxy-4H-1,2,4-triazol-4-yl)benzyl)piperazine-1-carbonyl)piperidin-1-yl)-2-ethoxyphenyl)(methyl)amino)-5,11-dimethyl-5,11-dihydro-6H-benzo[e]pyrimido[5,4-b][1,4]diazepin-6-one] | B (DC50 = 100-1000 nM) |
